Measurements: article PMC7933930, “Development of a small molecule that corrects misfolding and increases secretion of Z α1‐antitrypsin” (EMBO Molecular Medicine, 2021)

Assays:
KCNQ1/minK = KCNQ1/minK (Homo sapiens, UniProt P51787); experiment: cell-based
Method: (§1) GSK716 selectivity and PK properties were profiled in order to investigate the suitability of GSK716 for progression into in vivo studies and the potential for taking it forward as a clinical candidate for testing in humans. Since GSK716 results in loss of inhibitory activity of α1‐antitrypsin, the effect of the compound was assessed on other closely related serpins. […] Furthermore, there were no off‐target effects in a panel of assays considered predictive of known safety liabilities that precluded further development of GSK716 (Table EV1).

CYP3A4 = target: T1, CYP3A4 (Homo sapiens, UniProt P08684); experiment: CYP3A4 TDI fold IC50 shift (human liver microsomes, midazolam); type: in vitro ADME; details: probe midazolam (12.5 µM), read-out: time‐dependent inhibition of CYP3A4, fold shift in IC50
T1 construct: pre‐incubated at 37°C with human liver microsomes (0.1 mg/ml); from tissue; host or cells: human liver microsomes
T1 sequence (P08684 whole entry): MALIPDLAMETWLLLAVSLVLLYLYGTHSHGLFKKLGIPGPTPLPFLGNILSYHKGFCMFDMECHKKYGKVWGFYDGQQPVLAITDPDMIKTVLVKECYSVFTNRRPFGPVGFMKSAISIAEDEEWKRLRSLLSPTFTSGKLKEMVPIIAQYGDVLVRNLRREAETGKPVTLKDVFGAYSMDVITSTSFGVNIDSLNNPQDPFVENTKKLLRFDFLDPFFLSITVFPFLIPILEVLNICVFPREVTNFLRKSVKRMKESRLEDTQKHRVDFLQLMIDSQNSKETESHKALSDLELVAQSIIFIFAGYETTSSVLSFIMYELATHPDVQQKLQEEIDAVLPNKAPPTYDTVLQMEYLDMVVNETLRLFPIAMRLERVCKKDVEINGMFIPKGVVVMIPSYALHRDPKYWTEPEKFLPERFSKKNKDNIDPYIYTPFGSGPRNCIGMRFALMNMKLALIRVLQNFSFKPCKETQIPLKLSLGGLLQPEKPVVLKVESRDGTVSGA
Method: Seven concentrations of GSK716 (2, 4, 10, 20, 40, 100 and 200 µM) plus a vehicle control (0.25% v/v DMSO in pre‐incubation) were pre‐incubated at 37°C with human liver microsomes (0.1 mg/ml) and NADPH (1 mM) for a range of five pre‐incubation times (5, 10, 15, 20 and 30 min) with a 0 min pre‐incubation, in duplicate. At the end of the individual pre‐incubations, an aliquot of the pre‐incubation mixture was added to an incubation mixture in a 1:20 dilution for GSK716 with the specific CYP3A4 probe substrate, midazolam (12.5 µM, equivalent to 5xKm44) and NADPH (1 mM) for a 5 min. The reactions were terminated by transferring an aliquot of incubation mixture to methanol. The samples were mixed and then centrifuged at 2,500 rpm for 30 min at 4°C. Aliquots of the supernatant were diluted with formic acid (final concentration 0.1 % v/v) in deionised water containing internal standard (metoprolol; final concentration 0.03 mg/l). Samples were analysed by LC‐MS/MS.

OPRM1 [1] = target: T2, OPRM1 (Homo sapiens, UniProt P35372); experiment: Off‐target panel: OPRM1; type: cell-based
T2 sequence (P35372 whole entry, species assumed): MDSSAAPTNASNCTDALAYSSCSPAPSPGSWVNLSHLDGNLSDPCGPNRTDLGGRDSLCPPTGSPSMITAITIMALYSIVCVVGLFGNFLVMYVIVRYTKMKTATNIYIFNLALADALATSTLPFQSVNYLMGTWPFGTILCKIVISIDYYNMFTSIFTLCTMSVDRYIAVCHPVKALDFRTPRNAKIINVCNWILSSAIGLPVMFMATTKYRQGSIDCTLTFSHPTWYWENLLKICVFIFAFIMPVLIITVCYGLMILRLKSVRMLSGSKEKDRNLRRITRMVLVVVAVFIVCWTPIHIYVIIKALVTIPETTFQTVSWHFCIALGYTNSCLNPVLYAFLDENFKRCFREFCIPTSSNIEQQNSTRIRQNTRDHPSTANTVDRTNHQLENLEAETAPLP
Method: as §1

[2] = target: polymers of Z α1‐antitrypsin (Homo sapiens, UniProt P01009, E366K); experiment: Binding to Z α1‐antitrypsin polymers (fluorescence polarisation)
polymers of Z α1‐antitrypsin, sequence (P01009 25-418 E366K): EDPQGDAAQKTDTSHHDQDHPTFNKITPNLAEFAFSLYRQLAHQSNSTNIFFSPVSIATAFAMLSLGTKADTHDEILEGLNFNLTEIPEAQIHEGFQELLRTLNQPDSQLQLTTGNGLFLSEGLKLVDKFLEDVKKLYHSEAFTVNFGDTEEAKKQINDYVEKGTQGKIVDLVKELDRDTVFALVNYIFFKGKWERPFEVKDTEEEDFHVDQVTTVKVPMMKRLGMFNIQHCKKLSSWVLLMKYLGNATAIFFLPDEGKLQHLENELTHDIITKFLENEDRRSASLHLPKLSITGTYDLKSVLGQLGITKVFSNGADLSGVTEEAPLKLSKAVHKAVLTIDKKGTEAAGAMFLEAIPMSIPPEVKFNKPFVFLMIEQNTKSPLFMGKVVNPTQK
Method: Figure 1 Characteristics of the lead series of chiral hydroxy‐carboxamides identified from the ELT screen • The structure of GSK425, identified from the ELT screen, and the derived compound GSK716 obtained through a structure‐based design pipeline. • The degree of polymerisation of Z α1‐antitrypsin after 72 h at 37°C, as determined by an end‐point immunoassay using the 2C1 monoclonal antibody, in varying concentrations of compound (shown in panel A). […] Data presented as mean ± SD. • The compound bound to monomeric but not polymeric Z α1‐antitrypsin (Z α1‐AT) as reported by fluorescence polarisation of an Alexa‐488‐labelled variant of GSK716. • Representative curves reporting the interaction of different concentrations of GSK716 with Z α1‐antitrypsin based on changes in intrinsic tryptophan fluorescence.
Kinetic parameters of GSK716 binding to M, Z, S (Glu264Val) and Baghdad (Ala336Pro) (Haq et al, 2016) α1‐antitrypsin were measured by detecting intrinsic tryptophan fluorescence of the protein (excitation at 280 nm and detection of emission at 320 nm) on a stopped flow apparatus (Applied Photophysics) (Kim & Yu, 1996; Dafforn et al, 1999). […]

antithrombin = antithrombin (Homo sapiens, UniProt P01008); experiment: Inhibitory activity of antithrombin against thrombin; type: biochemical
antithrombin, sequence (P01008 33-464): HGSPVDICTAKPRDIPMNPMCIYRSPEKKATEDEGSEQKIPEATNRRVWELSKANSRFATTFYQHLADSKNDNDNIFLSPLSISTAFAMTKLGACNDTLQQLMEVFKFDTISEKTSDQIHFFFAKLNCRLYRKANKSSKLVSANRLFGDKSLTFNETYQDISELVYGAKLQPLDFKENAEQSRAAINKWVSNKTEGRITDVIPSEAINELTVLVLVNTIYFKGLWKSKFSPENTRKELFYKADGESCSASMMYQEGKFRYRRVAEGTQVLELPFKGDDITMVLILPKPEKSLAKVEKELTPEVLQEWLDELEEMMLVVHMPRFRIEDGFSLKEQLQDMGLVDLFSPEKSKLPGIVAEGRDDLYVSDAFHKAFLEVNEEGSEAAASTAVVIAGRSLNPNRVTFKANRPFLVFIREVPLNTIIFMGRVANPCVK
Method: Figure 5 The effect of GSK716 on serpin inhibitory activity • α1‐Antitrypsin was incubated at varying molar ratios with the model protease bovine α‐chymotrypsin, and the residual protease activity determined. The intercept of the regression with the abscissa reflects the number of molecules of α1‐antitrypsin required to inhibit one molecule of chymotrypsin in the presence (+c) and absence (−c) of 50µM GSK716. Error bars reflect ± SEM of three independent experiments. • M α1‐antitrypsin was incubated with different molar ratios of chymotrypsin and resolved by SDS–PAGE. The position of covalent α1‐antitrypsin‐chymotrypsin complex (cpx), native (nat) and cleaved (clv) is shown. • The inhibitory activity of α1‐antichymotrypsin against chymotrypsin (ach + chym), neuroserpin against trypsin (neus + tryp), and antithrombin against thrombin (atiii + thrombin) was determined in the presence and absence of GSK716. Error bars reflect ± SD of two independent experiments.
GSK716 selectivity and PK properties were profiled in order to investigate the suitability of GSK716 for progression into in vivo studies and the potential for taking it forward as a clinical candidate for testing in humans. Since GSK716 results in loss of inhibitory activity of α1‐antitrypsin, the effect of the compound was assessed on other closely related serpins. […]

[3] = system: Z α1‐antitrypsin polymers; experiment: Liver polymer load in Z α1‐antitrypsin transgenic mice (2C1 immunohistochemistry); type: in vivo, mouse; details: 100 mg/kg three times a day for 20 days, versus vehicle
Method: Since GSK716 blocks polymer formation in cells, we explored the effect of dosing GSK716 on liver polymer levels. […] GSK716 was dosed at 100 mg/kg three times a day for 20 days. […] Liver polymer levels were investigated by staining with 2C1 anti‐polymer monoclonal antibody and were scored blind by a pathologist or by quantification using an algorithm to measure all areas of positive staining (Fig EV1). There was no difference observed in total liver polymer load when assessed by manual or quantitative scoring (Fig 6B and C). There was no significant fibrosis in any of the liver sections. Intrahepatic α1‐antitrypsin was also assessed by ELISA. […] Treatment with GSK716 increased the monomer measured in liver homogenate by approx. fourfold in keeping with the changes seen in blood.
Formalin‐fixed, paraffin‐embedded livers from all mice were sectioned and stained with haematoxylin and eosin (H&E) and periodic acid Schiff (PAS) with diastase to examine tissue quality and the presence of diastase‐resistant polymer inclusions, respectively. […] Representative sections of liver from each mouse were blindly evaluated by a Board‐Certified Veterinary Pathologist and ranked in order of polymer content. A semi‐automated image analysis solution was developed to quantify total polymer content (Fig EV1). […]

OPRM1 [4] = target: T2, OPRM1; experiment: Off‐target panel: OPRM1 (DRX); type: cell-based
Method: as §1

CCC[C@@H](NC(=O)c1cccc2c1CC(=O)N2)[C@@H](O)c1cccc(F)c1C [GSK716]
IC50 (KCNQ1/minK): > 25.1 µM | IC50 shift (CYP3A4): 1.59 | EC50 (OPRM1 [1]): > 100 µM | binding to polymers of Z α1‐antitrypsin [2]: lack of binding | inhibitory activity of antithrombin towards its cognate protease (antithrombin): did not affect | total liver polymer load (manual or quantitative scoring of 2C1 staining) [3]: no difference | EC50 (OPRM1 [4]): 10 µM
